# Results: ChEMBL document CHEMBL1201862, “PubChem BioAssay data set” (2004)
#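 Values below derive from 48-hour exposures of cells grown in 96-well plates, with endpoints linearly interpolated between the two concentrations bracketing the appropriate inhibition level. GI50: concentration for 50% inhibition of growth.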 Active and inactive are the calls of the source. Rule as the data show it: active = GI50 up to about 1.1 µM and inactive = higher.
# Assays:
# Test in all cases: DTP human tumour cell line panel, 48 h
# OVCAR-5 = tested on: OVCAR-5
# COLO 205 = tested on: COLO 205
# TK-10 = tested on: TK-10
# SNB-75 = tested on: SNB-75
# 786-0 = tested on: 786-0
# NCI-H23 = tested on: NCI-H23
# UACC-62 = tested on: UACC-62
# NCI-H522 = tested on: NCI-H522
# MDA-N = tested on: MDA-N
# HCT-116 = tested on: HCT-116
# M14 = tested on: M14
# T47D = tested on: T47D
# MDA-MB-231 = tested on: MDA-MB-231
# HOP-92 = tested on: HOP-92
# Malme-3M = tested on: Malme-3M
# HT-29 = tested on: HT-29
# MOLT-4 = tested on: MOLT-4
# IGROV-1 = tested on: IGROV-1
# SF-268 = tested on: SF-268
# RPMI-8226 = tested on: RPMI-8226
# HOP-62 = tested on: HOP-62
# U-251 = tested on: U-251
# A498 = tested on: A498
# KM12 = tested on: KM12
# SK-OV-3 = tested on: SK-OV-3
# SN12C = tested on: SN12C
# UACC-257 = tested on: UACC-257
# NCI/ADR-RES = tested on: NCI/ADR-RES
# CAKI-1 = tested on: CAKI-1
# ACHN = tested on: ACHN
# SW-620 = tested on: SW-620
# SK-MEL-2 = tested on: SK-MEL-2
# SR = tested on: SR
# Hs-578T = tested on: Hs-578T
# MDA-MB-435 = tested on: MDA-MB-435
# PC-3 = tested on: PC-3
# HCT-15 = tested on: HCT-15
# SK-MEL-28 = tested on: SK-MEL-28
# A549 = tested on: A549
# CCRF-CEM = tested on: CCRF-CEM
# DU-145 = tested on: DU-145
# K562 = tested on: K562
# SK-MEL-5 = tested on: SK-MEL-5
# OVCAR-3 = tested on: OVCAR-3
# UO-31 = tested on: UO-31
# EKVX = tested on: EKVX
# OVCAR-4 = tested on: OVCAR-4
# SF-295 = tested on: SF-295
# BT-549 = tested on: BT-549
# NCI-H460 = tested on: NCI-H460
# OVCAR-8 = tested on: OVCAR-8
# MCF7 = tested on: MCF7
# SF-539 = tested on: SF-539
# NCI-H226 = tested on: NCI-H226
# HL-60 = tested on: HL-60
# SNB-19 = tested on: SNB-19
# HCC 2998 = tested on: HCC 2998
# LOX IMVI = tested on: LOX IMVI
# RXF 393 = tested on: RXF 393
smiles,measurement,setting,value
O=C(/C=C/c1ccccc1)C[C@@H](O)C[C@@H]1CC=CC(=O)O1,GI50,OVCAR-5,20 µM (inactive)
same,GI50,COLO 205,5.5 µM (inactive)
same,GI50,TK-10,14.9 µM (inactive)
same,GI50,SNB-75,16.7 µM (inactive)
same,GI50,786-0,3.34 µM (inactive)
same,GI50,NCI-H23,8.95 µM (inactive)
same,GI50,UACC-62,8.97 µM (inactive)
same,GI50,NCI-H522,2.64 µM (inactive)
same,GI50,MDA-N,4.76 µM (inactive)
same,GI50,HCT-116,2.46 µM (inactive)
same,GI50,M14,5.81 µM (inactive)
same,GI50,T47D,10.6 µM (inactive)
same,GI50,MDA-MB-231,14.4 µM (inactive)
same,GI50,HOP-92,3.88 µM (inactive)
same,GI50,Malme-3M,14.2 µM (inactive)
same,GI50,HT-29,5.13 µM (inactive)
same,GI50,MOLT-4,2.65 µM (inactive)
same,GI50,IGROV-1,6.85 µM (inactive)
same,GI50,SF-268,10.1 µM (inactive)
same,GI50,RPMI-8226,2.61 µM (inactive)
same,GI50,HOP-62,16 µM (inactive)
same,GI50,U-251,8.69 µM (inactive)
same,GI50,A498,16.7 µM (inactive)
same,GI50,KM12,4.67 µM (inactive)
same,GI50,SK-OV-3,14.3 µM (inactive)
same,GI50,SN12C,12.5 µM (inactive)
same,GI50,UACC-257,13.6 µM (inactive)
same,GI50,NCI/ADR-RES,20.5 µM (inactive)
same,GI50,CAKI-1,14.2 µM (inactive)
same,GI50,ACHN,12.7 µM (inactive)
same,GI50,SW-620,2.35 µM (inactive)
same,GI50,SK-MEL-2,14.2 µM (inactive)
same,GI50,SR,2.84 µM (inactive)
same,GI50,Hs-578T,> 33.4 µM (inactive)
same,GI50,MDA-MB-435,4.86 µM (inactive)
same,GI50,PC-3,16.3 µM (inactive)
same,GI50,HCT-15,10.2 µM
same,GI50,SK-MEL-28,11.5 µM (inactive)
same,GI50,A549,18.7 µM (inactive)
same,GI50,CCRF-CEM,1.85 µM (inactive)
same,GI50,DU-145,17.2 µM (inactive)
same,GI50,K562,2.33 µM (inactive)
same,GI50,SK-MEL-5,12.4 µM (inactive)
same,GI50,OVCAR-3,3.75 µM (inactive)
same,GI50,UO-31,9.18 µM (inactive)
same,GI50,EKVX,17.1 µM (inactive)
same,GI50,OVCAR-4,15.2 µM (inactive)
same,GI50,SF-295,13.7 µM (inactive)
same,GI50,BT-549,11.4 µM (inactive)
same,GI50,NCI-H460,16.3 µM (inactive)
same,GI50,OVCAR-8,3.32 µM (inactive)
same,GI50,MCF7,3.94 µM (inactive)
same,GI50,SF-539,3.57 µM (inactive)
same,GI50,NCI-H226,> 100 µM (inactive)
same,GI50,HL-60,2.18 µM (inactive)
same,GI50,SNB-19,15.9 µM (inactive)
same,GI50,HCC 2998,5.93 µM (inactive)
same,GI50,LOX IMVI,1.95 µM (inactive)
Cc1nccn1S(=O)(=O)c1ccc(Br)cc1Br,GI50,OVCAR-5,35.1 µM (inactive)
same,GI50,COLO 205,18.6 µM (inactive)
same,GI50,TK-10,38.6 µM (inactive)
same,GI50,SNB-75,12.5 µM (inactive)
same,GI50,786-0,45.7 µM (inactive)
same,GI50,NCI-H23,36.1 µM (inactive)
same,GI50,UACC-62,33.6 µM (inactive)
same,GI50,NCI-H522,25.7 µM (inactive)
same,GI50,MDA-N,20.7 µM (inactive)
same,GI50,HCT-116,31.6 µM (inactive)
same,GI50,M14,16.9 µM (inactive)
same,GI50,T47D,22.6 µM (inactive)
same,GI50,MDA-MB-231,19.1 µM (inactive)
same,GI50,HOP-92,26.7 µM (inactive)
same,GI50,Malme-3M,50.8 µM (inactive)
same,GI50,HT-29,29.1 µM (inactive)
same,GI50,MOLT-4,29 µM (inactive)
same,GI50,IGROV-1,41.8 µM (inactive)
same,GI50,SF-268,37.2 µM (inactive)
same,GI50,RPMI-8226,19.5 µM (inactive)
same,GI50,U-251,44.7 µM (inactive)
same,GI50,A498,35.9 µM (inactive)
same,GI50,KM12,27.7 µM (inactive)
same,GI50,SK-OV-3,41.8 µM (inactive)
same,GI50,SN12C,29.7 µM (inactive)
same,GI50,UACC-257,34.9 µM (inactive)
same,GI50,RXF 393,23 µM (inactive)
same,GI50,NCI/ADR-RES,28.5 µM (inactive)
same,GI50,CAKI-1,30 µM (inactive)
same,GI50,ACHN,54.1 µM (inactive)
same,GI50,SW-620,28.5 µM (inactive)
same,GI50,SK-MEL-2,22.1 µM (inactive)
same,GI50,SR,24.7 µM (inactive)
same,GI50,Hs-578T,41.1 µM (inactive)
same,GI50,MDA-MB-435,19.5 µM (inactive)
same,GI50,PC-3,33 µM (inactive)
same,GI50,HCT-15,28.4 µM
same,GI50,SK-MEL-28,48.9 µM (inactive)
same,GI50,A549,25.9 µM (inactive)
same,GI50,CCRF-CEM,26.5 µM (inactive)
same,GI50,DU-145,42.9 µM (inactive)
same,GI50,K562,29.1 µM (inactive)
same,GI50,SK-MEL-5,19.9 µM (inactive)
same,GI50,OVCAR-3,22.7 µM (inactive)
same,GI50,UO-31,22.3 µM (inactive)
same,GI50,EKVX,26.9 µM (inactive)
same,GI50,OVCAR-4,29.5 µM (inactive)
same,GI50,SF-295,27.7 µM (inactive)
same,GI50,BT-549,56.2 µM (inactive)
same,GI50,NCI-H460,38.4 µM (inactive)
same,GI50,OVCAR-8,44.4 µM (inactive)
same,GI50,MCF7,37.5 µM (inactive)
same,GI50,SF-539,22.6 µM (inactive)
same,GI50,HL-60,19.1 µM (inactive)
same,GI50,SNB-19,25.9 µM (inactive)
same,GI50,LOX IMVI,40.9 µM (inactive)
